Columns and labels:
Type in all cases: in vivo
[1] = system: pigweed (Amaranthus retroflexus); experiment: Test A preemergence, visual plant response rating; conditions: for Pigweed plant response rating: 125 g ai/ha, preemergence, 0 to 100 scale, 0 no effect, 100 complete control; for Pigweed plant response rating (0 to 100 scale): 500 g ai/ha Preemergence, approx. 10 days
Outline: (§1)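 Ratings 0–100 (100 = complete control), visual, vs untreated controls at ~10 days. Application pre- or postemergence; solvent mixture with surfactant; loam/sand medium.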

[2] = system: barnyardgrass (Echinochloa crus-galli); experiment: Test A preemergence, visual plant response rating; conditions: for Barnyardgrass plant response rating: 125 g ai/ha, preemergence, 0 to 100 scale, 0 no effect, 100 complete control; for Barnyardgrass plant response rating (0 to 100 scale): 500 g ai/ha Preemergence, approx. 10 days
Outline: as §1

[3] = system: Italian ryegrass (Lolium multiflorum); experiment: Test A preemergence, visual plant response rating; conditions: for Ryegrass, Italian plant response rating: 125 g ai/ha, preemergence, 0 to 100 scale, 0 no effect, 100 complete control; for Ryegrass, Italian plant response rating (0 to 100 scale): 500 g ai/ha Preemergence, approx. 10 days
Outline: as §1

[4] = system: foxtail, giant (giant foxtail, Setaria faberii); experiment: Test A preemergence, visual plant response rating; conditions: for Foxtail, Giant plant response rating: 125 g ai/ha, preemergence, 0 to 100 scale, 0 no effect, 100 complete control; for Foxtail, Giant plant response rating (0 to 100 scale): 500 g ai/ha Preemergence, approx. 10 days
Outline: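 Preemergence: seeds in loam/sand blend given directed soil spray of compound in non-phytotoxic solvent with surfactant. Postemergence: plants 2–10 cm, one- to two-leaf stage, sprayed with same formulation. Visual injury rated vs untreated controls after ~10 days in greenhouse, 0 (no effect) to 100 (complete control).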

[5] = system: ragweed (common ragweed, Ambrosia elatior); experiment: Test A preemergence, visual plant response rating; conditions: for Ragweed plant response rating: 125 g ai/ha, preemergence, 0 to 100 scale, 0 no effect, 100 complete control; for Ragweed plant response rating (0 to 100 scale): 500 g ai/ha Preemergence, approx. 10 days
Outline: as §1

kochia (Kochia scoparia) [6] = experiment: Test A preemergence, visual plant response rating; conditions: for Kochia plant response rating: 125 g ai/ha, preemergence, 0 to 100 scale, 0 no effect, 100 complete control; for Kochia plant response rating (0 to 100 scale): 500 g ai/ha Preemergence, approx. 10 days
Outline: as §1

[7] = system: pigweed (Amaranthus retroflexus); experiment: Test A postemergence, visual plant response rating; conditions: for Pigweed plant response rating (0 to 100 scale): 500 g ai/ha, postemergence, 0 is no effect, 100 is complete control; for Pigweed plant response rating: Postemergence, 125 g ai/ha, 0 to 100 scale (0 no effect, 100 complete control)
Outline: as §1

[8] = system: blackgrass (Alopecurus myosuroides); experiment: Test A postemergence, visual plant response rating; conditions: for Blackgrass plant response rating (0 to 100 scale): 500 g ai/ha, postemergence, 0 is no effect, 100 is complete control; for Blackgrass plant response rating: Postemergence, 125 g ai/ha, 0 to 100 scale (0 no effect, 100 complete control)
Outline: as §1

[9] = system: barnyardgrass (Echinochloa crus-galli); experiment: Test A postemergence, visual plant response rating; conditions: for Barnyardgrass plant response rating (0 to 100 scale): 500 g ai/ha, postemergence, 0 is no effect, 100 is complete control; for Barnyardgrass plant response rating: Postemergence, 125 g ai/ha, 0 to 100 scale (0 no effect, 100 complete control)
Outline: as §1

[10] = system: galium (catchweed bedstraw, Galium aparine); experiment: Test A postemergence, visual plant response rating; conditions: for Galium plant response rating (0 to 100 scale): 500 g ai/ha, postemergence, 0 is no effect, 100 is complete control; for Galium plant response rating: Postemergence, 125 g ai/ha, 0 to 100 scale (0 no effect, 100 complete control)
Outline: as §1

corn (Zea mays) = experiment: Test A postemergence, visual plant response rating; conditions: for Corn plant response rating (0 to 100 scale): 500 g ai/ha, postemergence, 0 is no effect, 100 is complete control; for Corn plant response rating: Postemergence, 125 g ai/ha, 0 to 100 scale (0 no effect, 100 complete control)
Outline: as §1

[11] = system: Italian ryegrass (Lolium multiflorum); experiment: Test A postemergence, visual plant response rating; conditions: for Ryegrass, Italian plant response rating (0 to 100 scale): 500 g ai/ha, postemergence, 0 is no effect, 100 is complete control; for Ryegrass, Italian plant response rating: Postemergence, 125 g ai/ha, 0 to 100 scale (0 no effect, 100 complete control)
Outline: as §1

[12] = system: foxtail, giant (giant foxtail, Setaria faberii); experiment: Test A postemergence, visual plant response rating; conditions: for Foxtail, Giant plant response rating (0 to 100 scale): 500 g ai/ha, postemergence, 0 is no effect, 100 is complete control; for Foxtail, Giant plant response rating: Postemergence, 125 g ai/ha, 0 to 100 scale (0 no effect, 100 complete control)
Outline: as §1

[13] = system: ragweed (common ragweed, Ambrosia elatior); experiment: Test A postemergence, visual plant response rating; conditions: for Ragweed plant response rating (0 to 100 scale): 500 g ai/ha, postemergence, 0 is no effect, 100 is complete control; for Ragweed plant response rating: Postemergence, 125 g ai/ha, 0 to 100 scale (0 no effect, 100 complete control)
Outline: as §1

kochia (Kochia scoparia) [14] = experiment: Test A postemergence, visual plant response rating; conditions: for Kochia plant response rating (0 to 100 scale): 500 g ai/ha, postemergence, 0 is no effect, 100 is complete control; for Kochia plant response rating: Postemergence, 125 g ai/ha, 0 to 100 scale (0 no effect, 100 complete control)
Outline: as §1

[15] = system: wheat (Triticum aestivum); experiment: Test A postemergence, visual plant response rating; conditions: for Wheat plant response rating (0 to 100 scale): 500 g ai/ha, postemergence, 0 is no effect, 100 is complete control; for Wheat plant response rating: Postemergence, 125 g ai/ha, 0 to 100 scale (0 no effect, 100 complete control)
Outline: as §1

rice (Oryza sativa) = experiment: Test B flooded paddy test, visual plant response rating; conditions: 250 g ai/ha, Flood, applied to paddy water, 2-leaf stage, evaluated after 13 to 15 days
Outline: (§2)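 Rice, umbrella sedge, ducksalad and barnyardgrass grown to 2-leaf stage; pots flooded 3 cm above soil and compound applied directly to paddy water, depth maintained.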

[16] = system: barnyardgrass (Echinochloa crus-galli); experiment: as above; conditions: 250 g ai/ha, Flood, applied to paddy water, 2-leaf stage, evaluated after 13 to 15 days
Outline: as §2

[17] = system: sedge, umbrella (small-flower umbrella sedge, Cyperus difformis); experiment: as above; conditions: 250 g ai/ha, Flood, applied to paddy water, 2-leaf stage, evaluated after 13 to 15 days
Outline: as §2

[18] = system: ducksalad (Heteranhera limosa); experiment: as above; conditions: 250 g ai/ha, Flood, applied to paddy water, 2-leaf stage, evaluated after 13 to 15 days
Outline: as §2

Row | SMILES | Pigweed plant response rating [1] | Pigweed plant response rating (0 to 100 scale) [1] | Barnyardgrass plant response rating [2] | Barnyardgrass plant response rating (0 to 100 scale) [2] | Ryegrass, Italian plant response rating [3] | Ryegrass, Italian plant response rating (0 to 100 scale) [3] | Foxtail, Giant plant response rating [4] | Foxtail, Giant plant response rating (0 to 100 scale) [4] | Ragweed plant response rating [5] | Ragweed plant response rating (0 to 100 scale) [5] | Kochia plant response rating (0 to 100 scale) (kochia (Kochia scoparia) [6]) | Pigweed plant response rating (0 to 100 scale) [7] | Pigweed plant response rating [7] | Blackgrass plant response rating (0 to 100 scale) [8] | Blackgrass plant response rating [8] | Barnyardgrass plant response rating (0 to 100 scale) [9] | Barnyardgrass plant response rating [9] | Galium plant response rating (0 to 100 scale) [10] | Galium plant response rating [10] | Corn plant response rating (0 to 100 scale) (corn (Zea mays)) | other results
1 | C#CCO/N=C(/c1c(O)c(C)nn(C)c1=O)c1cc(Br)cc2ccccc12 [Compound 112, 4-[(E)-(3-bromo-1-naphthalenyl)[(2-propyn-1-yloxy)imino]methyl]-5-hydroxy-2,6-dimethyl-3(2H)-pyridazinone] | 100 | 100 | 100 | 100 | 100 | 100 | 100 | 100 | 90 | 90 | 80 | 100 | 90 | 100 | 100 | 90 | 80 | 100 | 100 | 90 | Kochia plant response rating (kochia (Kochia scoparia) [6]): 50; Corn plant response rating (corn (Zea mays)): 20; Ryegrass, Italian plant response rating (0 to 100 scale) [11]: 100; Ryegrass, Italian plant response rating [11]: 90; Foxtail, Giant plant response rating (0 to 100 scale) [12]: 90; Foxtail, Giant plant response rating [12]: 90; Ragweed plant response rating (0 to 100 scale) [13]: 100; Ragweed plant response rating [13]: 100; Kochia plant response rating (0 to 100 scale) (kochia (Kochia scoparia) [14]): 90; Kochia plant response rating (kochia (Kochia scoparia) [14]): 70; Wheat plant response rating (0 to 100 scale) [15]: 70; Wheat plant response rating [15]: 50; Plant response rating, Rice (0 to 100 scale, 0 is no effect, 100 is complete control) (rice (Oryza sativa)): 0; Plant response rating, Barnyardgrass (0 to 100 scale, 0 is no effect, 100 is complete control) [16]: 55; Plant response rating, Sedge, Umbrella (0 to 100 scale, 0 is no effect, 100 is complete control) [17]: 60; Plant response rating, Ducksalad (0 to 100 scale, 0 is no effect, 100 is complete control) [18]: 60
2 | CCO/N=C(/c1c(O)c(C)nn(C)c1=O)c1cc(Br)cc2ccccc12 [Compound 113, 4-[(E)-(3-bromo-1-naphthalenyl)(ethoxyimino)methyl]-5-hydroxy-2,6-dimethyl-3(2H)-pyridazinone] | 80 | 100 | 90 | 100 | 80 | 100 | 100 | 100 | 90 | 90 | 90 | 100 | 100 | 100 | 90 | 90 | 90 | 100 | 100 | 80 | Kochia plant response rating (kochia (Kochia scoparia) [6]): 30; Corn plant response rating (corn (Zea mays)): 40; Ryegrass, Italian plant response rating (0 to 100 scale) [11]: 90; Ryegrass, Italian plant response rating [11]: 80; Foxtail, Giant plant response rating (0 to 100 scale) [12]: 90; Foxtail, Giant plant response rating [12]: 90; Ragweed plant response rating (0 to 100 scale) [13]: 100; Ragweed plant response rating [13]: 90; Kochia plant response rating (0 to 100 scale) (kochia (Kochia scoparia) [14]): 90; Kochia plant response rating (kochia (Kochia scoparia) [14]): 60; Wheat plant response rating (0 to 100 scale) [15]: 60; Wheat plant response rating [15]: 50; Plant response rating, Rice (0 to 100 scale, 0 is no effect, 100 is complete control) (rice (Oryza sativa)): 60; Plant response rating, Barnyardgrass (0 to 100 scale, 0 is no effect, 100 is complete control) [16]: 85; Plant response rating, Sedge, Umbrella (0 to 100 scale, 0 is no effect, 100 is complete control) [17]: 50; Plant response rating, Ducksalad (0 to 100 scale, 0 is no effect, 100 is complete control) [18]: 75
3 | C=CCON=C(c1c(O)c(C)nn(C)c1=O)c1cc(Br)cc2ccccc12 [Compound 114] | 10 | 80 | 90 | 100 | 70 | 100 | 100 | 100 | 80 | 90 | 20 | 90 | 70 | 90 | 80 | 90 | 80 | 100 | 100 | 80 | Kochia plant response rating (kochia (Kochia scoparia) [6]): 10; Corn plant response rating (corn (Zea mays)): 20; Ryegrass, Italian plant response rating (0 to 100 scale) [11]: 90; Ryegrass, Italian plant response rating [11]: 80; Foxtail, Giant plant response rating (0 to 100 scale) [12]: 90; Foxtail, Giant plant response rating [12]: 90; Ragweed plant response rating (0 to 100 scale) [13]: 100; Ragweed plant response rating [13]: 90; Kochia plant response rating (0 to 100 scale) (kochia (Kochia scoparia) [14]): 40; Kochia plant response rating (kochia (Kochia scoparia) [14]): 30; Wheat plant response rating (0 to 100 scale) [15]: 50; Wheat plant response rating [15]: 0; Plant response rating, Rice (0 to 100 scale, 0 is no effect, 100 is complete control) (rice (Oryza sativa)): 35; Plant response rating, Barnyardgrass (0 to 100 scale, 0 is no effect, 100 is complete control) [16]: 70; Plant response rating, Sedge, Umbrella (0 to 100 scale, 0 is no effect, 100 is complete control) [17]: 85; Plant response rating, Ducksalad (0 to 100 scale, 0 is no effect, 100 is complete control) [18]: 85
4 | C=CCON=C(c1c(O)c(C)nn(C)c1=O)c1cc(Br)cc2ccccc12 [Compound 115] | 30 | 90 | 90 | 100 | 80 | 90 | 90 | 100 | 90 | 90 | 10 | 90 | 60 | 90 | 80 | 90 | 80 | 100 | 100 | 70 | Corn plant response rating (corn (Zea mays)): 20; Ryegrass, Italian plant response rating (0 to 100 scale) [11]: 90; Ryegrass, Italian plant response rating [11]: 80; Foxtail, Giant plant response rating (0 to 100 scale) [12]: 90; Foxtail, Giant plant response rating [12]: 90; Ragweed plant response rating (0 to 100 scale) [13]: 100; Ragweed plant response rating [13]: 90; Kochia plant response rating (0 to 100 scale) (kochia (Kochia scoparia) [14]): 60; Kochia plant response rating (kochia (Kochia scoparia) [14]): 30; Wheat plant response rating (0 to 100 scale) [15]: 40; Wheat plant response rating [15]: 20; Plant response rating, Rice (0 to 100 scale, 0 is no effect, 100 is complete control) (rice (Oryza sativa)): 35; Plant response rating, Barnyardgrass (0 to 100 scale, 0 is no effect, 100 is complete control) [16]: 75; Plant response rating, Sedge, Umbrella (0 to 100 scale, 0 is no effect, 100 is complete control) [17]: 85; Plant response rating, Ducksalad (0 to 100 scale, 0 is no effect, 100 is complete control) [18]: 80
